{"source": "BindingDB's records for doi:10.1016/j.bmcl.2005.05.101", "about": "(Glaxosmithkline, 2005)", "key": {"[1]": {"biological_target": "T1, Dimer of Gag-Pol polyprotein [501-599,Q508K,L534I,L564I,C568A,C596A] (Human immunodeficiency virus 1, UniProt P03367, C568A/C596A/L534I/L564I/Q508K)", "T1 construct": "501-599", "test": "Protease Inhibition Assay", "protocol": "The Ki values were determined using fluorogenic substrate, 2-(aminobenzoyl)-Thr-Ile-Nle-Phe(p-NO2)-Gln-ArgNH2. A standard curve relating changes in fluorescent intensity to changes in concentration of product was used to convert fluorescent changes into molar velocities. The amount of cleavage was determined by HPLC."}, "[2]": {"biological_target": "T1, Dimer of Gag-Pol polyprotein [501-599,Q508K,L534I,L564I,C568A,C596A]", "test": "Protease Inhibition Assay", "details": "pH 6.8; 25 °C"}}, "note": "pIC50, pKi: −log10 of the molar value.", "data": [{"smiles": "O=C(N[C@@H](Cc1ccccc1)[C@H](O)CN(OC1CCCCC1)S(=O)(=O)c1ccc2c(c1)OCO2)O[C@H]1CO[C@H]2OCC[C@H]21", "note": "[(3R,3aS,6aR)-hexahydrofuro[2,3-b]furan-3-yl N-[(2S,3R)-4-[2H-1,3-benzodioxole-5-(cyclohexyloxy)sulfonamido]-3-hydroxy-1-phenylbutan-2-yl]carbamate]", "values": [{"measurement": "pKi", "setting": "[1]", "value": "> 11.30"}]}, {"smiles": "O=C(N[C@@H](Cc1ccccc1)[C@H](O)CN(OC1CCCC1)S(=O)(=O)c1ccc2c(c1)OCO2)O[C@H]1CO[C@H]2OCC[C@H]21", "note": "[(3R,3aS,6aR)-hexahydrofuro[2,3-b]furan-3-yl N-[(2S,3R)-4-[2H-1,3-benzodioxole-5-(cyclopentyloxy)sulfonamido]-3-hydroxy-1-phenylbutan-2-yl]carbamate]", "values": [{"measurement": "pKi", "setting": "[1]", "value": "> 11.30"}]}, {"smiles": "Nc1cccc(S(=O)(=O)N(C[C@@H](O)[C@H](Cc2ccccc2)NC(=O)O[C@H]2CO[C@H]3OCC[C@H]32)OC2CCCC2)c1", "note": "[(3R,3aS,6aR)-hexahydrofuro[2,3-b]furan-3-yl N-[(2S,3R)-4-[(3-aminobenzene)(cyclopentyloxy)sulfonamido]-3-hydroxy-1-phenylbutan-2-yl]carbamate]", "values": [{"measurement": "pKi", "setting": "[1]", "value": "> 11.30"}]}, {"smiles": "Nc1ccc(S(=O)(=O)N(C[C@@H](O)[C@H](Cc2ccccc2)NC(=O)O[C@H]2CO[C@H]3OCC[C@H]32)OC2CCCC2)cc1", "note": "[(3R,3aS,6aR)-hexahydrofuro[2,3-b]furan-3-yl N-[(2S,3R)-4-[(4-aminobenzene)(cyclopentyloxy)sulfonamido]-3-hydroxy-1-phenylbutan-2-yl]carbamate]", "values": [{"measurement": "pKi", "setting": "[1]", "value": "> 11.30"}]}, {"smiles": "O=C(N[C@@H](Cc1ccccc1)[C@H](O)CN(OC1CCCCC1)S(=O)(=O)c1ccc2c(c1)OCCO2)O[C@H]1CO[C@H]2OCC[C@H]21", "note": "[(3R,3aS,6aR)-hexahydrofuro[2,3-b]furan-3-yl N-[(2S,3R)-4-[(cyclohexyloxy)(2,3-dihydro-1,4-benzodioxine-6-)sulfonamido]-3-hydroxy-1-phenylbutan-2-yl]carbamate]", "values": [{"measurement": "pKi", "setting": "[1]", "value": "> 11.30"}]}, {"smiles": "O=C(N[C@@H](Cc1ccccc1)[C@H](O)CN(OC1CCCCC1)S(=O)(=O)c1ccc(O)cc1)O[C@H]1CO[C@H]2OCC[C@H]21", "note": "[(3R,3aS,6aR)-hexahydrofuro[2,3-b]furan-3-yl N-[(2S,3R)-4-[(cyclohexyloxy)(4-hydroxybenzene)sulfonamido]-3-hydroxy-1-phenylbutan-2-yl]carbamate]", "values": [{"measurement": "pKi", "setting": "[1]", "value": "> 11.30"}]}, {"smiles": "COc1ccc(S(=O)(=O)N(C[C@@H](O)[C@H](Cc2ccccc2)NC(=O)O[C@H]2CCOC2)OC2CCCC2)cc1", "note": "[(3S)-oxolan-3-yl N-[(2S,3R)-4-[(cyclopentyloxy)(4-methoxybenzene)sulfonamido]-3-hydroxy-1-phenylbutan-2-yl]carbamate]", "values": [{"measurement": "pKi", "setting": "[1]; pH 6.8, 25 °C", "value": 9.72}, {"measurement": "pIC50", "setting": "[2]", "value": 6.13}]}, {"smiles": "COc1ccc(S(=O)(=O)N(C[C@@H](O)[C@H](Cc2ccccc2)NC(=O)[C@@H](NC(=O)c2ccc3ccccc3n2)C(N)=O)OC2CCCC2)cc1", "note": "[N-alkoxysulfonamide analog entry j]", "values": [{"measurement": "pKi", "setting": "[1]; pH 6.8, 25 °C", "value": "> 11.30"}, {"measurement": "pIC50", "setting": "[2]", "value": 7.62}]}, {"smiles": "COc1ccc(S(=O)(=O)N(C[C@@H](O)[C@H](Cc2ccccc2)NC(=O)O[C@H]2CO[C@H]3OCC[C@H]32)OC2CCCC2)cc1", "note": "[N-alkoxysulfonamide analog entry k]", "values": [{"measurement": "pKi", "setting": "[1]; pH 6.8, 25 °C", "value": "> 11.30"}, {"measurement": "pIC50", "setting": "[2]", "value": 8.22}]}, {"smiles": "O=C(N[C@@H](Cc1ccccc1)[C@H](O)CN(OC1CCCC1)S(=O)(=O)c1ccc(O)cc1)O[C@H]1CO[C@H]2OCC[C@H]21", "note": "[N-alkoxysulfonamide analog entry n]", "values": [{"measurement": "pKi", "setting": "[1]", "value": "> 11.30"}]}, {"smiles": "O=C(N[C@@H](Cc1ccccc1)[C@H](O)CN(OC1CCCC1)S(=O)(=O)c1ccc2c(c1)OCCO2)O[C@H]1CO[C@H]2OCC[C@H]21", "note": "[N-alkoxysulfonamide analog entry p]", "values": [{"measurement": "pKi", "setting": "[1]", "value": "> 11.30"}]}, {"smiles": "COc1ccc(S(=O)(=O)N(C[C@@H](O)[C@H](Cc2ccccc2)NC(=O)O[C@H]2CO[C@H]3OCC[C@H]32)OC2CCCCC2)cc1", "note": "[N-alkoxysulfonamide analog entry q]", "values": [{"measurement": "pKi", "setting": "[1]", "value": "> 11.30"}]}, {"smiles": "COC(=O)N[C@H](C(=O)N[C@@H](Cc1ccccc1)[C@H](O)CN(OC1CCCC1)S(=O)(=O)c1ccc(OC)cc1)C(C)(C)C", "note": "[methyl N-[(1S)-1-{[(2S,3R)-4-[(cyclopentyloxy)(4-methoxybenzene)sulfonamido]-3-hydroxy-1-phenylbutan-2-yl]carbamoyl}-2,2-dimethylpropyl]carbamate]", "values": [{"measurement": "pIC50", "setting": "[2]", "value": 6.69}]}]}
